ChEMBL document CHEMBL1153164, “Synthesis and evaluation of 3'-azido-2',3'-dideoxypurine nucleosides as inhibitors of human immunodeficiency virus” (Bioorg Med Chem Lett, 2010)

How the values were obtained:
[1] = test system: Human immunodeficiency virus 1; assay: Antiviral activity against HIV1 LAI infected in human PBM cells after 5 days; type: functional, organism-based; conditions: Human immunodeficiency virus 1, LAI, PBMC, 120 h
PBMC = assay: Cytotoxicity against human PBMC after 5 days; type: cell-based; conditions: 120 h
CCRF-CEM = assay: Cytotoxicity against human CEM cells after 5 days; type: ADME, cell-based; conditions: 120 h
Vero = assay: Cytotoxicity against african green monkey Vero cells after 5 days; type: ADME, cell-based; conditions: Chlorocebus sabaeus, 120 h

| SMILES | EC50 [1] | EC90 [1] | IC50 (PBMC) | IC50 (CCRF-CEM) | IC50 (Vero) |
| --- | --- | --- | --- | --- | --- |
| CC(CO)Nc1nc(N)nc2c1ncn2[C@H]1C[C@H](N=[N+]=[N-])[C@@H](CO)O1 (some centres not stated) | 59.9 µM | > 10 µM | > 100 µM | > 100 µM | > 100 µM |
| CNc1nc(Cl)nc2c1ncn2[C@H]1C[C@H](N=[N+]=[N-])[C@@H](CO)O1 | > 100 µM | > 100 µM | > 100 µM | > 100 µM | > 100 µM |
| [N-]=[N+]=N[C@H]1C[C@H](n2cnc3c(N)nc(F)nc32)O[C@@H]1CO | 45.8 µM | 94.7 µM | 30.1 µM | 30.1 µM | 34.4 µM |
| CN(C)c1nc(Cl)nc2c1ncn2[C@H]1C[C@H](N=[N+]=[N-])[C@@H](CO)O1 | > 100 µM | > 100 µM | > 100 µM | > 100 µM | > 100 µM |
| [N-]=[N+]=N[C@H]1C[C@H](n2cnc3c(NC4CC4)nc(N)nc32)O[C@@H]1CO | 1.5 µM | 8.8 µM | > 100 µM | > 100 µM | > 100 µM |
| [N-]=[N+]=N[C@H]1C[C@H](n2ccc(=O)[nH]c2=O)O[C@@H]1CO [NAVURIDINE] | 0.16 µM | 0.6 µM | > 100 µM | 69.3 µM | 26 µM |
| C=CCN(C)c1nc(N)nc2c1ncn2[C@H]1C[C@H](N=[N+]=[N-])[C@@H](CO)O1 | 0.4 µM | 1.5 µM | > 100 µM | 27 µM | 32 µM |
| [N-]=[N+]=N[C@H]1C[C@H](n2cnc3c(N)nc(Cl)nc32)O[C@@H]1CO | 50.3 µM | > 100 µM | 35.8 µM | > 100 µM | > 100 µM |
| C=CCNc1ncnc2c1ncn2[C@H]1C[C@H](N=[N+]=[N-])[C@@H](CO)O1 | 0.3 µM | 1.5 µM | 51.1 µM | > 100 µM | > 100 µM |
| CC(C)(CO)Nc1nc(N)nc2c1ncn2[C@H]1C[C@H](N=[N+]=[N-])[C@@H](CO)O1 | 52.5 µM | > 10 µM | > 100 µM | > 100 µM | > 100 µM |
| [N-]=[N+]=N[C@H]1C[C@H](n2cnc3c(NC4CC4)nc(Cl)nc32)O[C@@H]1CO | 15 µM | 51.5 µM | 35.3 µM | > 100 µM | > 100 µM |
| C#CCNc1nc(N)nc2c1ncn2[C@H]1C[C@H](N=[N+]=[N-])[C@@H](CO)O1 | 1.7 µM | 8.5 µM | > 100 µM | > 100 µM | > 100 µM |
| COc1nc(N)c2ncn([C@H]3C[C@H](N=[N+]=[N-])[C@@H](CO)O3)c2n1 | 12.4 µM | 39.6 µM | 35 µM | > 100 µM | > 100 µM |
| CN(C)c1nc(N)nc2c1ncn2[C@H]1C[C@H](N=[N+]=[N-])[C@@H](CO)O1 | 0.21 µM | 1.1 µM | > 100 µM | > 100 µM | > 100 µM |
| COc1nc(F)nc2c1ncn2[C@H]1C[C@H](N=[N+]=[N-])[C@@H](CO)O1 | > 100 µM | > 100 µM | 9.4 µM | > 100 µM | > 100 µM |
| C=CCNc1nc(N)nc2c1ncn2[C@H]1C[C@H](N=[N+]=[N-])[C@@H](CO)O1 | 0.5 µM | 4.3 µM | > 100 µM | > 100 µM | > 100 µM |
| [N-]=[N+]=N[C@H]1C[C@H](n2cnc3c(Cl)nc(F)nc32)O[C@@H]1CO | 2.6 µM | 10 µM | 7.2 µM | 13.3 µM | 21.8 µM |
| [N-]=[N+]=N[C@H]1C[C@H](n2cnc3c(NCCCCCO)nc(N)nc32)O[C@@H]1CO | 86.5 µM | > 10 µM | > 100 µM | > 100 µM | > 100 µM |
| COc1nc(NC2CC2)c2ncn([C@H]3C[C@H](N=[N+]=[N-])[C@@H](CO)O3)c2n1 | 59.7 µM | > 100 µM | > 100 µM | > 100 µM | > 100 µM |
| [N-]=[N+]=N[C@H]1C[C@H](n2cnc3c(NCCO)nc(N)nc32)O[C@@H]1CO | 2.1 µM | 16.2 µM | > 100 µM | > 100 µM | > 100 µM |
| COc1nc(Cl)nc2c1ncn2[C@H]1C[C@H](N=[N+]=[N-])[C@@H](CO)O1 | 55.3 µM | > 100 µM | > 100 µM | > 100 µM | > 100 µM |
| COc1nc(OC)c2ncn([C@H]3C[C@H](N=[N+]=[N-])[C@@H](CO)O3)c2n1 | 13.2 µM | > 100 µM | > 100 µM | > 100 µM | > 100 µM |
| Cc1cn([C@H]2C[C@H](N=[N+]=[N-])[C@@H](CO)O2)c(=O)[nH]c1=O [ZIDOVUDINE] | – | 0.02 µM | > 100 µM | – | – |
